Experimental data from the C3SDB collision cross section collection.
Where “and” joins values, the source holds several entries; their conditions need not be identical. Equal values may be shown once. One block for each compound: values may come before it.

How the values were obtained:
[1] = [M+NH4]+; instrument: TW; calibrated with polyalanine
[2] = instrument: DT, stepped-field
[3] = instrument: DT, single field, calibrated with Agilent tune mix (Agilent)
[4] = instrument: DT, stepped-field; remark: listed apart in the source
[5] = instrument: TW, calibrated with phosphatidylcholines (ESI+) and phosphatidylethanolamines (ESI-)
[6] = instrument: DT, single field

SMILES: CC(=O)OC[C@]12C[C@H](OC(=O)CC(C)C)C(C)=C[C@H]1O[C@@H]1[C@H](O)[C@@H](O)[C@@]2(C)[C@]12CO2 [HT-2 toxin]
collision cross section (N2) [1]: 203 Å²

SMILES: CCCCCC/C=C\CCCCCCCCCC(=O)OC[C@H](COP(=O)([O-])OCC[N+](C)(C)C)OC(=O)CCCCCCC/C=C\CCCCCC [PC(34:2)]
collision cross section (N2) ([6]; [M+H]+): 282.64 Å² and 284.2 Å² | collision cross section (N2) ([3]; [M+HCOO]-): 285.5 Å² | collision cross section (N2) ([3]; [M+H]+): 285.2 Å² | collision cross section (N2) ([3]; [M+Na]+): 289.4 Å² | collision cross section (N2) ([4]; [M+K]+): 291.3 Å² | collision cross section (N2) ([2]; [M+H]+): 302.6 Å² | collision cross section (N2) ([5]; [M+CH3COO]-): 287.7 Å² | collision cross section (N2) ([5]; [M+H]+): 281.7 Å²

SMILES: CCCC/C=C\C/C=C\CCCCCCCC(=O)O[C@H](COC(=O)CCCCCCC/C=C\CCCCCCCCC)COP(=O)(O)O[C@H]1C(O)C(O)C(O)[C@@H](O)C1O (stereo partly drawn) [PI(36:3)]
collision cross section (N2) ([3]; [M+H]+): 296.4 Å² | collision cross section (N2) ([3]; [M+NH4]+): 297.4 Å² | collision cross section (N2) ([3]; [M+Na]+): 295.5 Å² | collision cross section (N2) ([2]; [M-H]-): 296.3 Å² | collision cross section (N2) ([5]; [M+Na]+): 291.1 Å² | collision cross section (N2) ([5]; [M-H]-): 287.2 Å²

SMILES: CCCCCCCCCCCCCCCCCC(=O)O[C@H](CO)COP(=O)(O)O [LPA(18:0)]
collision cross section (N2) ([2]; [M-H]-): 206.2 Å²

SMILES: CCCCC/C=C\C/C=C\C/C=C\C/C=C\CCCC(=O)O[C@H](COCCCCCCCCCCCCCCCC)COP(=O)([O-])OCC[N+](C)(C)C [PC(o36:4)]
collision cross section (N2) ([2]; [M+H]+): 297.2 Å²

SMILES: CCCCC/C=C\C/C=C\C/C=C\CCCCC(=O)O[C@H](COCCCCCCCCCCCCCCCCCC)COP(=O)(O)OCCN [PE(o36:3)]
collision cross section (N2) ([4]; [M+Na]+): 285.4 Å² | collision cross section (N2) ([2]; [M+H]+): 290.1 Å² | collision cross section (N2) ([2]; [M-H]-): 273.1 Å²

SMILES: CCCCCCCC/C=C\CCCCCCCC(=O)OC[C@@H](O)COP(=O)(O)O[C@H]1C(O)C(O)C(O)[C@@H](O)C1O (stereo partly drawn) [LPI(18:1)]
collision cross section (N2) ([2]; [M-H]-): 233.4 Å²

Continued, values first:

collision cross section (N2) ([2]; [M-H]-): 301 Å²
SMILES: CCCCC/C=C\C/C=C\CCCCCCCCCCCC(=O)O[C@H](COC(=O)CCCCCCCCCCCCCCCCC)COP(=O)(O)OC[C@H](N)C(=O)O [PS(40:2)]

collision cross section (N2) ([3]; [M-H]-): 273.3 Å² | collision cross section (N2) ([4]; [M+Na]+): 289.3 Å² | collision cross section (N2) ([2]; [M+H]+): 297.1 Å² | collision cross section (N2) ([5]; [M-H]-): 271.7 Å²
SMILES: CCCCC/C=C\C/C=C\CCCCCCCCCCCC(=O)O[C@H](COC(=O)CCCCCCC/C=C\CCCCCC)COP(=O)(O)OCCN [PE(38:3)]

collision cross section (N2) ([6]; [M+H]+): 292.57 Å² | collision cross section (N2) ([6]; [M+Na]+): 294 Å² | collision cross section (N2) ([3]; [M+HCOO]-): 292.3 Å² | collision cross section (N2) ([3]; [M+H]+): 293.9 Å² | collision cross section (N2) ([3]; [M+Na]+): 297.1 Å² | collision cross section (N2) ([2]; [M+H]+): 306.2 Å² | collision cross section (N2) ([5]; [M+CH3COO]-): 294.5 Å² | collision cross section (N2) ([5]; [M+H]+): 291.6 Å²
SMILES: CCCCCCCC/C=C\CCCCCCCCCCCC(=O)OC[C@H](COP(=O)([O-])OCC[N+](C)(C)C)OC(=O)CCCCCCCCCCCCC [PC(36:1)]

collision cross section (N2) ([2]; [M-H]-): 250 Å²
SMILES: CCCCC/C=C\C/C=C\CCCCCCCCCC(=O)O[C@H](COC(=O)CCCCCCCCCCC)COP(=O)(O)O [PA(16:1/16:1)]

collision cross section (N2) ([2]; [M-H]-): 285.5 Å²
SMILES: CCCCC/C=C\C/C=C\CCCCCCCCCCCC(=O)O[C@H](COC(=O)CCCCCCCCCCCCCC)COP(=O)(O)OC[C@@H](O)CO [PG(37:2)]

collision cross section (N2) ([2]; [M-H]-): 297.5 Å² and 297.7 Å²
SMILES: CCCCCCCCCC/C=C\CCCCCCCCCC(=O)O[C@H](COC(=O)CCCCCCCCCCCCC)COP(=O)(O)O[C@H]1C(O)C(O)C(O)[C@@H](O)C1O (stereo partly drawn) [PI(18:0/18:1)]

collision cross section (N2) ([3]; [M+H]+): 285.4 Å² | collision cross section (N2) ([3]; [M+NH4]+): 286.5 Å² | collision cross section (N2) ([3]; [M-H]-): 272.8 Å² | collision cross section (N2) ([2]; [M-H]-): 280 Å² | collision cross section (N2) ([5]; [M+Na]+): 282 Å² | collision cross section (N2) ([5]; [M-H]-): 272.2 Å²
SMILES: CCCC/C=C\CCCCCCCC(=O)OC[C@H](COP(=O)(O)OC[C@@H](O)CO)OC(=O)CCCCCCCCCCC/C=C\C/C=C\CCCCC [PG(36:3)]

collision cross section (N2) ([2]; [M+H]+): 299.8 Å²
SMILES: CCCC/C=C\CCCCCCCCCCCC(=O)O[C@H](COC(=O)CCCCCCCCCCCCCCCCCCC)COP(=O)(O)OCCN [PE(38:1)]

collision cross section (N2) ([3]; [M-H]-): 265.1 Å² | collision cross section (N2) ([2]; [M-H]-): 270.3 Å² | collision cross section (N2) ([5]; [M+Na]+): 277.3 Å² | collision cross section (N2) ([5]; [M-H]-): 263.5 Å²
SMILES: CCCCCCCCCCCCCCCCC(=O)O[C@H](COC(=O)CCCCCCCCCCCCCC)COP(=O)(O)OC[C@@H](O)CO [PG(32:0)]
